Laboratory results reported in patent US20170128366A1, “PHARMACEUTICAL FORMULATIONS OF CHELATING AGENTS AS A METAL REMOVAL TREATMENT SYSTEM” (ZONEONE PHARMA, INC., priority 2013, published 2017).

Experiments:
[1] = Active loading of DFO or doxorubicin into liposomes without membrane modifier, effect of temperature; type: physicochemical; conditions: 10 min, pH 6.5
Protocol: Active loading of DFO using no ethanol (or other membrane modifier) was done using liposomes composed of either a fluid-phase lipid (egg PC) or a gel-phase lipid (HSPC), specifically, egg PC liposomes (3:2 Chol, 0.5 M ammonium sulfate, 90 nm) or HSPC liposomes (3:2 Chol, 250 mM ammonium sulfate, 90 nm) were remote loaded with DFO at a temperature range of 40-120° C. (pH 8.0) for either 10 min or 30 min. […] The target drug to lipid ratio was 170 g DFO/mol PL. After the DFO was loaded the tubes were rapidly cooled to room temperature. Unencapsulated DFO was removed by dialysis at 4° C., and drug/PL concentrations were analyzed by HPLC as described in paragraph [0108].
This experiment was done in the absence of a chemical modifier. Liposomes were composed of either a fluid-phase lipid (egg PC) or a gel-phase lipid (HSPC), specifically, egg PC liposomes (3:2 Chol, 0.5 M ammonium sulfate, 90 nm) or HSPC liposomes (3:2 Chol, 0.25 M ammonium sulfate, 90 nm) were remote loaded with DFO or doxorubicin at a temperature range between 40-120° C. for 10 min. Doxorubicin concentration in the loading solution was 5 mg/mL and a target drug to lipid ratio of 170 g DFO/mol PL. DFO was loaded at pH 8 while doxorubicin was loaded at pH 6.5. Unencapsulated drug was removed by dialysis at 4° C., and drug/PL concentrations were analyzed by HPLC as described in paragraph [0108].

[2] = in vivo, cited from earlier work
[3] = cited from earlier work
[4] = patients who take deferasirox; cited from earlier work

SMILES | active loading efficiency ([1]; HSPC liposomes (3:2 Chol, 0.25 M ammonium sulfate), 60° C. and above) [%] | active loading ([1]; HSPC liposomes, 40° C.) | active loading ([1]; egg PC liposomes (3:2 Chol, 0.5 M ammonium sulfate), 30-110° C.) | absorption after oral administration / from the gastro-intestinal tract [2] | clearance from the circulation [2] | solubility [3] | water solubility [3] | risk of renal and hepatic failure [4]
COc1cccc2c1C(=O)c1c(O)c3c(c(O)c1C2=O)C[C@@](O)(C(=O)CO)C[C@@H]3O[C@H]1C[C@H](N)[C@H](O)[C@H](C)O1 [doxorubicin] | > 90 | loaded very poorly | high efficiency |  |  |  |  | 
O=C(O)c1ccc(-n2nc(-c3ccccc3O)nc2-c2ccccc2O)cc1 [deferasirox] |  |  |  | well absorbed | cleared from the circulation slowly | less than 2 mg/mL | very low water-solubility | higher risk
CC(=O)N(O)CCCCCNC(=O)CCC(=O)N(O)CCCCCNC(=O)CCC(=O)N(O)CCCCCN [DFO, Deferoxamine] |  |  |  | poorly absorbed | rapidly cleared |  | very water-soluble | 
